The record followed here is patent US12714702B2, “Compositions and methods for treating or preventing pulmonary hypertension” (priority 2020, dated 2026).

A value given as a limit tells only on which side of the number the result lay.

In experiment [1] the test system is serum-starved bovine PASMCs. Nature of the experiment: Annexin V FITC assay (apoptotic induction). The class given is cell-based. Particulars: 2.5 or 5 μM, 24 hours, concentration-dependent. The method, then: (§1) In FIGS. 9A-9B, PASMC were serum starved for 24 hours, and then treated with varying QA concentrations in serum-starved media. Quantification was performed using Cyto-ID® autophagy kit and Annexin-V/FITC apoptosis kit. […] In FIG. 9C, autophagy inhibition by QA (5 μM) as depicted by increase in LC3B-II concentration in bovine high altitude PASMC quantified by western blot assay kit. Data represent mean±SD (n=3). *p<0.05.
Bovine PASMC were serum starved in FBS-free media for 24 hours, and then treated with QA for 24 hours at various concentrations (0, 2.5, or 5 μM). Annexin V levels were measured with Annexin V FITC assay kit (#600300, Cayman Chemical, Ann Arbor, MI) according to manufacturer's manual.
(§2) An apoptotic induction assay, i.e., Caspase-3 assay was performed to understand QA's impact on cellular apoptosis in primary human PASMCs following 6-hour treatment. […] Moreover, another apoptotic induction assay, i.e., Annexin V FITC assay was also used to measure the effects of QA on serum-starved bovine PASMCs.
In other independent experiments, QA's ability to modulate autophagy/apoptotic pathways was quantified in vitro in serum-starved bovine PASMC cells. Similar results were observed.

The subject of experiment [2] is 5-HT induced bovine PASMC. Nature of the experiment: Anti-proliferative efficacy in 5-hydroxytryptamine induced hyper-proliferation. It counts as cell-based. The conditions noted are these: 1.5-5.0 μM, time- and concentration-dependent. The method, then:
(§3) Data represent mean±SD (n=5) repeated over 3 experiments. *p<0.05.
(§4) Human or bovine PASMC were treated with varying concentrations of QA (1.5-, 3.1-, and 6.2-μM). Cellular proliferation was measured at day 1, day 3 and day 5 by following the manufacturer's protocol. Briefly, a reagent mix of nucleic acid stain and background suppressor were added in PBS followed by addition of the mix in treatment wells (100 μL/well). The plates were incubated at 37° C./5% CO2 for one hour followed by evaluation of fluorescence at 485 ex/535 em. Proliferation inhibition was analyzed relative to control wells on each time point. Data was averaged from two trials with n=6 for SMC II and one trial of n=4 for SMC III.
(§5) In-vitro studies to measure anti-proliferative activity of QA against pulmonary hypertension were performed using primary human PASMC (FIG. 3), primary bovine PASMC (FIG. 4) and high altitude PASMC (HAPASMC) (FIG. 4). HAPASMC, due to prolonged hypoxia exposure, are known to be hyper-proliferative in regular culture conditions, while hyper-proliferation was induced in PASMC cells by 24 hour serum starvation, or by exposure to 5-hydroxytryptamine (5-HT). […]

Experiment [3] relates to SU5416/hypoxia-induced PAH model. The conditions noted are these: SU5416/hypoxia rats, QA 10 mg/kg i.p. once-a-day for 3 weeks from Day 1.
Experiment [4] relates to pulmonary arteries of MCT-induced PAH animals. Nature of the experiment: MCT model, trichrome staining of lung sections and medial wall thickness. The class given is in vivo, rat. The conditions noted are these: MCT rats. An excerpt: (§6) At the end of treatment period with QA, animals were sacrificed. Chest was surgically opened to expose rat lungs. Lung tissues were collected, and blinded tissues were sectioned by Reveal Bio (San Diego, CA) at 5 μm thickness. 2 tissue sections for each animal were earmarked for Trichrome staining; and 8 more sections were provided blank for custom staining.
(§7) Tissue sections were stained using trichrome staining to visualize pulmonary arteries for all treatment and control groups. Stained lung sections were imaged using Zeiss Axio Scope A1 microscope equipped with Axiocam 506 color camera and Zeiss Zen 2.3 software. Medial wall thickness for similar sized pulmonary arteries was measured using a Motic BA210 microscope and measurements were made using Motic Image plus 2.0 software. Five pulmonary artery walls were analyzed per animal (n=2 to 5)
Additionally, lung tissue sections from the MCT-induced PAH lung tissue were examined using trichrome staining.
Medial wall thickness of pulmonary arteries was measured using the trichrome stained microscopic images.

Experiment [5] deals with LC3B-II in high-altitude bovine PASMCs. The experiment is described as follows: Autophagy inhibition assay (LC3B-II expression), western blot. The class given is cell-based. Particulars: high altitude bovine PASMC cell lysate, QA 5 μM. How it is done:
as §1
High-altitude bovine PASMCs were used to determine the effect of QA on LC3B-II, an autophagy marker, by western blotting (#3868S, LC3B (D11) XP Rabbit monoclonal antibody, Cell Signaling, Danvers, MA).
Autophagy inhibition (lysosomal fusion with autophagosomes) by QA was examined. Bovine PASMCs were serum starved in FBS-free media for 24 hours, and then treated with QA (2.5 and 5 μM) for 24 hours. Autophagic inhibition was measured with Cyto-ID® autophagy detection kit. […] QA-induced autophagy inhibition by targeting LC3B-II expression was examined using HAPASMCs.
For orientation: A western blot detects proteins with antibodies after separation by electrophoresis.

The target of another experiment is ITCH/AIP4 E3 ligase (Homo sapiens, UniProt Q96J02). Nature of the experiment: ITCH/AIP4 E3 ligand activity assay, ubiquitin ELISA (UbiQuant). It counts as biochemical. Particulars: 20 μM dose. How it is done: The ligand activity inhibition by QA at multiple concentrations (0, 10, or 20 μM) in presence of ubiquitin was quantified.
Chain of ITCH/AIP4 E3 ligase (Q96J02 whole entry): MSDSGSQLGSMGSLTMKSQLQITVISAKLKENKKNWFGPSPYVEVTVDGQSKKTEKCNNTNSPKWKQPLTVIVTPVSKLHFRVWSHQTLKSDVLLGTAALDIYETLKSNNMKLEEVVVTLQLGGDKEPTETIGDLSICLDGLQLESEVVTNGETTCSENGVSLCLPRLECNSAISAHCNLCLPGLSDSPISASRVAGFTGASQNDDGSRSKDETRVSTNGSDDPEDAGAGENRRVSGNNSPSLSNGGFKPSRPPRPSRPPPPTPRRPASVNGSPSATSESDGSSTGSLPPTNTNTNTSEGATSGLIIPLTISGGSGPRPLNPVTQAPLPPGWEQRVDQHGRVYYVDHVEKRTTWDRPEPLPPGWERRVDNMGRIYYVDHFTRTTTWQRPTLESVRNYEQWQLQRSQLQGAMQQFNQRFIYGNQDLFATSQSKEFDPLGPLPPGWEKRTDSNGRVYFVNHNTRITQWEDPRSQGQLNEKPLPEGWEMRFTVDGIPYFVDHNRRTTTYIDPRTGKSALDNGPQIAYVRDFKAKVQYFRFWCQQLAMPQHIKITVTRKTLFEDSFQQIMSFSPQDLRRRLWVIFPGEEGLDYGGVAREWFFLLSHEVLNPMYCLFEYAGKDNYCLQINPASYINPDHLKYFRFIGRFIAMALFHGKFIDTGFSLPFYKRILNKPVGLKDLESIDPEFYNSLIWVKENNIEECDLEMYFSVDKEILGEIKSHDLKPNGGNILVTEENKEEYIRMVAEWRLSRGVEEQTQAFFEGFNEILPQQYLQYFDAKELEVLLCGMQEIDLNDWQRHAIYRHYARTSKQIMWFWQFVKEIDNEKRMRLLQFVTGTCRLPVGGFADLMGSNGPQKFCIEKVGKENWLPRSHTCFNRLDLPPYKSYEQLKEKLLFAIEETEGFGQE
(In general: An ELISA detects its analyte on a solid surface through an enzyme-linked reagent.)

In experiment [6] the test system is pulmonary arterioles of SU5416/hypoxia-induced PAH animals. Nature of the experiment: SU5416/hypoxia model, muscularization, trichrome staining and medial wall thickness. It counts as in vivo, rat. The method, then: Adult male rats were injected with SU5416 (20 mg/kg) subcutaneously and were kept under hypoxia (10% O2) for 3 weeks. QA was administered once-a-day intraperitoneally at a dose of 10 mg/kg for 21 days starting from Day 1. […] Data represent mean±SD (n=4-5). *p<0.05.
as §6, §7
After 3 weeks, hemodynamic studies were performed.

Experiment [7] concerns serum-starved bovine PASMC. Nature of the experiment: Anti-proliferative efficacy in serum-starved bovine PASMC. It counts as cell-based. Particulars: 1.5-5.0 μM, time- and concentration-dependent. How it is done:
as §3, §4, §5

A further experiment deals with primary human PASMCs. The experiment is described as follows: Caspase-3 assay (apoptotic induction). The class given is cell-based. The conditions noted are these: 6-hour treatment, 5 and 10 μM, concentration-dependent. The method, then: Caspase-3 level in SMC II cells was evaluated using EnzCheck™ Caspase-3 assay kit (ThermoFisher Scientific, Waltham, MA, USA) following the manufacturer's protocol. Briefly, upon 90% confluency, SMC II cells were harvested and seeded in 100 mm TC treated culture dishes at a density of 250,000 cells/well and allowed to adhere overnight. Following day, cells were treated with QA (5- and 10-μM) for 6 hours followed by harvesting. Harvested cells were lysed using a lysis buffer for 30 minutes on ice. The cells were centrifuged, and supernatant was used to analyze levels of a caspase-3 substrate aminomethylcoumarin (AMC)-derived substrate Z-DEVD-AMC (fluorescence measurement at 360 ex/460 em).
as §2

For the compound `CCN(CC)CCCC(C)Nc1c2ccc(Cl)cc2nc2ccc(OC)cc12` (stereo not shown) [QA, quinacrine], the “apoptotic induction (fluorescence intensity of Annexin-V stained cells)” value in experiment [1] is given as “significantly enhanced apoptotic induction”. The proliferation entry in experiment [2] and in experiment [7] was “significantly inhibits proliferation” throughout. Further, the RVSP in experiment [3] is recorded as 45.6±7.9 mmHg. Besides, the “medial wall thickness of pulmonary arteries” value in experiment [4] (compared to sham control animals) is “back to almost normal”. Also, the “collagen and muscular deposition in pulmonary arterioles” value in [4] (trichrome staining) was “significant reduction”; in experiment [6] (SU5416/hypoxia rats, trichrome staining), “significant reduction”. In addition, the “increase in LC3B-II expression” value in experiment [5] is reported as above 2 fold. The “reduction in total polyubiquitination resulting from ITCH/AIP4 activity” value at ITCH/AIP4 E3 ligase is given as ~ 25%. For the same compound, the “medial wall thickness in pulmonary arterioles” value in experiment [6] (SU5416/hypoxia rats (FIG. 14D)) was “significant reduction”. The “vessel muscularization (less completely muscularized blood vessels than control)” value in [6] (SU5416/hypoxia rats, pulmonary arterioles) is on record as 3.5 folds. The “reduction in medial wall thickness of pulmonary arteries” value in experiment [6] (compared to SU5416/hypoxia-induced PAH animal tissue sections (FIG. 16)) is recorded as “about 2 fold”. In the experiment with primary human PASMCs, the caspase-3 levels result was “increased caspase-3 levels”.
